From patent US12115172B2, “Sulfate-free cleansing composition that confers high salicylic acid deposition” (L'OREAL, priority 2021, dated 2024)

Assay: HLB value of the surfactant
Assay type: physicochemical
Conditions: of the 30% anionic surfactant used in the composition
Source text: The term “Hydrophilic-Lipophilic Balance” or “HLB,” refers to an empirical expression for the relationship of the hydrophilic and hydrophobic groups of an emulsifier. This term is well known to those skilled in the art. See, e.g., “The HLB system.

Compound	HLB VALUE
SODIUM COCOYL GLYCINATE	14
DECYL GLUCOSIDE (APGS)	13
SODIUM LAUROYL SARCOSINATE	29.8
CCCCCCCCCCCCOS(=O)(=O)[O-].[Na+] [SODIUM LAURYL SULFATE]	40.1
